{"source": "patent US20230149383A1", "about": "“QUINOLINE COMPOUNDS FOR TREATING LUNG, LIVER, AND KIDNEY DISEASES, DISORDERS, OR CONDITIONS” (Aldeyra Therapeutics, Inc., priority 2020, published 2023)", "key": {"[1]": {"tested_on": "STAM mouse model (NASH/HCC)", "experiment": "STAM mouse model (NASH/HCC)", "assay_type": "in vivo", "from_the_text": "The STAM™ model is a model that recapitulates the same disease progression as human NASH/HCC. In this model, male C57BL/6 mice aged two days are given a single dose of streptozotocin to reduce insulin secretory capacity. When the mice turn four weeks of age they start a high-fat diet feeding. This model has a background of late type 2 diabetes which progresses into fatty liver, NASH, fibrosis and consequently liver cancer (HCC). Compared to other NASH-HCC model mice, the disease progresses in a relatively short period of time, and liver cancer is developed in 100% of animals at 20 weeks of age. The model is widely used in NASH research, with more than 40 papers and 70 international conferences published using data from the STAM™ model so far. STAM™ model is able to reproduce many of the pathological features of human NASH. For example: ballooning degeneration of cells, a characteristic pathological feature of human NASH; burned-out NASH, in which lipid droplets decrease as fibrosis progresses; progression of fibrosis occurring around the central vein; a mild rise in ALT (a liver injury marker); increase in NASH markers such as CK-18; increase in human HCC markers such as glutamine synthase, glypican-3 and AFP have been observed.\nIn a STAM mouse model (NASH/HCC), animals at birth are given a low dose of STZ (200 ug) and then at 3 to 4 weeks these animals are fed a high fat diet. In the progression of the animal model, at 5 weeks fatty liver is evident, 7 weeks NASH is evident, 9 weeks fibrosis is evident, and at 10 weeks nodules are evident and necropsy is performed. In this study, three groups vehicle (0.5% methylcellulose) alone, BID (200 mg/kg in vehicle, BID=twice a day), and QID (200 mg/kg in vehicle, QID=[…]), dosing began at 4 weeks and continued to week ten of the animal model."}, "Genotoxicity studies": {"experiment": "Genotoxicity studies", "protocol": "(§1) I-1 plasma concentrations are projected to have reached at least 10 μM, exceeding reported levels of RASP in humans with inflammatory diseases. The data support the potential of I-1, and RASP inhibition in general, in treating inflammation and fibrosis."}, "rat NAFLD model [2]": {"tested_on": "rat NAFLD model", "experiment": "12-week choline deficient high fat diet rat study (NAFLD model)", "assay_type": "in vivo", "details": "11 Week Groups (Day 84)"}, "[3]": {"experiment": "First-in-human Phase 1 trial (SAD/MAD), safety", "assay_type": "in vivo", "protocol": "The adverse event profile was favorable compared to placebo: A total of 6 (9.4%) subjects receiving the test compound had treatment emergent adverse events, compared to 4 (19.1%) subjects who received placebo. […] No changes in serum glucose were observed. […] There were no subjects who had QTcF >500 msec or a change of >60 msec from baseline. […] Three of these five subjects were in the SAD portion of the study (one each in the 100 mg, 200 mg, and 700 mg dose cohorts) and the remaining two subjects were in the MAD portion of the study (one each in the 150 mg BID and 300 mg BID dose cohorts).\nClinical development of compound I-1 in inflammatory disease is supported by safety testing in human healthy volunteers in single and multiple ascending dose (10 day), placebo-controlled Phase I trials."}, "[4]": {"tested_on": "delayed rectifier potassium current", "experiment": "In vitro inhibition of the delayed rectifier potassium current", "assay_type": "cell-based"}, "[5]": {"experiment": "Phase 1 trial, pharmacokinetics in healthy volunteers", "assay_type": "in vivo, human", "details": "for Cmax / AUC / half-life: human, in vivo; for AUC: read-out: 0 to 12 hour area under the curve (AUCtau)", "protocol": "Healthy volunteers were dosed with 600 mg of compound I-1 BID for 10 days in the top (highest) dose cohort. […] The 0 to 12 hour area under the curve (AUCtau) was 5710 h*ng/mL (61.5% CV) on Day 1 and 6,800 h*ng/mL (37.9% CV) on Day 10."}, "free MDA": {"tested_on": "free MDA", "experiment": "Phase 1 trial, plasma biomarkers in healthy volunteers", "assay_type": "in vivo, human", "details": "vs placebo"}, "rat NAFLD model [6]": {"tested_on": "rat NAFLD model", "experiment": "12-week choline deficient high fat diet rat study (NAFLD model)", "assay_type": "in vivo", "details": "for NAS score: 7 week group", "from_the_text": "NAFLD is diagnosed in the US as 3 million new cases each year. NASH is included in the NAFLD diagnosis, as it is the easiest to ascertain in a subject. NAFLD activity score (NAS) is scored as 0-2 not diagnostic, 3-4 ranges from not diagnostic/borderline/positive NASH, and 5-8 diagnostic of NASH; the NAS scoring system includes a composite of […] semi-quantitative features: steatosis (0-3), lobular inflammation (0-2), hepatocellular ballooning (0-2), and fibrosis (0-4). To analyze the effect of compound I-1 on NAFLD, NAS was analyzed in rats treated with vehicle or various doses of compound I-1 (100 mg/kg, 125 mg/kg was compared to escalation 30/60/100 mg/kg and 50/75/100 mg/kg BID, respectively in animals fed a choline deficient, high fat diet for 7 weeks (vehicle vs. 100 mg/kg vs 30/60/100 mg/kg) and 12 weeks (vehicle vs. 125 mg/kg vs 50/75/100 mg/kg). Plasma was collected at 1, 2, 3, 6, 8, 10, and 12 weeks and tested for cytokines and ALT, AST, Triglycerides, Cholesterol, and tBilirubin (measures of liver function). At 12 weeks the livers were collected and gene expression studies, immunohistochemistry, and hydroxyproline."}, "[7]": {"tested_on": "large panel of ligand binding assays, ion channel assays, transporter assays, and enzyme inhibition studies", "experiment": "Secondary pharmacology studies (ligand binding, ion channel, transporter, enzyme inhibition panel)", "protocol": "as §1"}, "[8]": {"details": "200 mg/kg in 0.5% methylcellulose, BID and QID groups, week 4 to 10"}, "[9]": {"details": "after high-fat meal on Day 10, 600 mg BID"}, "[10]": {"details": "plasma, 7 week and 12 week groups, vs vehicle"}}, "note": "“Also recorded” adds a separate entry of the source. Where two headings read alike, the source gives them in different places.", "data": [{"smiles": "CC(C)(O)c1nc2ccccc2cc1N", "note": "[I-1]", "values": [{"measurement": "hepatic fibrosis", "setting": "[1]; [8]", "value": "significantly reduced; also recorded: significant reduction"}, {"measurement": "hepatic triglycerides", "setting": "[1]; [8]", "value": "significantly reduced; also recorded: significant reduction"}, {"measurement": "body weight gain", "setting": "[1]; 200 mg/kg in methylcellulose, BID and QID (FIG. 10: QD or BID), vs vehicle", "value": "statistically significant reduction"}, {"measurement": "potential for mutagenicity or clastogenicity", "setting": "Genotoxicity studies", "value": "no potential for mutagenicity or clastogenicity"}, {"measurement": "risk of genotoxicity", "setting": "Genotoxicity studies; preclinical studies", "value": "low risk of genotoxicity"}, {"measurement": "NAS scores", "setting": "rat NAFLD model [2]", "value": "lower"}, {"measurement": "overall safety and tolerability", "setting": "[3]; Phase 1 SAD and MAD (10 day), up to 600 mg BID", "value": "safe and tolerable"}, {"measurement": "subjects with QTcF change of >30 msec from baseline", "setting": "[3]; SAD 100, 200, 700 mg, MAD 150 mg BID, 300 mg BID cohorts", "value": "Five"}, {"measurement": "QTcF prolongation", "setting": "[3]; in vivo", "value": "did not lead to QTcF prolongation"}, {"measurement": "changes in heart rate, blood pressure, respiratory rate, pulse oximetry, or temperature", "setting": "[3]; in vivo", "value": "No clinically meaningful changes"}, {"measurement": "changes in hepatic or renal analytes (ALT, AST, ALP, amylase, GGT, bilirubin, creatinine kinase, creatinine)", "setting": "[3]; in vivo", "value": "No clinically meaningful changes"}, {"measurement": "changes in serum glucose", "setting": "[3]; in vivo", "value": "No changes"}, {"measurement": "hematological changes", "setting": "[3]; in vivo", "value": "No clinically significant hematological changes"}, {"measurement": "interruptions or discontinuations of study drug administration", "setting": "[3]; in vivo", "value": "no interruptions or discontinuations"}, {"measurement": "subjects with QTcF >500 msec or a change of >60 msec from baseline", "setting": "[3]; in vivo", "value": "no subjects"}, {"measurement": "subjects with treatment emergent adverse events", "setting": "[3]; subjects receiving the test compound, number (%)", "value": "6 (9.4%) subjects"}, {"measurement": "potential to inhibit the delayed rectifier potassium current", "setting": "[4]", "value": "very low potential"}, {"measurement": "accumulation of the drug", "setting": "[5]; across all cohorts", "value": "Little to no accumulation"}, {"measurement": "correlation of Cmax and AUC with dose", "setting": "[5]; as dose increased", "value": "linear correlation"}, {"measurement": "increase in clearance", "setting": "[5]; between Day 1 and Day 10", "value": "no significant increase in clearance"}, {"measurement": "Cmax", "setting": "[5]; 600 mg, 600 mg BID, Day 1", "value": 1920, "unit": "ng/mL"}, {"measurement": "AUC", "setting": "[5]; 600 mg, 600 mg BID, Day 1", "value": 5710, "unit": "ng·h/mL"}, {"measurement": "half-life", "setting": "[5]; 600 mg, 600 mg BID, Day 1, read-out: half-life (converted)", "value": 3.98, "unit": "h"}, {"measurement": "Cmax", "setting": "[5]; 600 mg, 600 mg BID, Day 10", "value": 1460, "unit": "ng/mL"}, {"measurement": "AUC", "setting": "[5]; 600 mg, 600 mg BID, Day 10", "value": 6800, "unit": "ng·h/mL"}, {"measurement": "half-life", "setting": "[5]; 600 mg, 600 mg BID, Day 10, read-out: half-life (converted)", "value": 4.56, "unit": "h"}, {"measurement": "half-life", "setting": "[5]; multiple day exposures, across cohorts, read-out: half-life (t1/2), mean values", "value": "3.07 to 6.2", "unit": "h"}, {"measurement": "cyp autoinduction", "setting": "[5]; over the course of 10 days", "value": "no cyp autoinduction was observed"}, {"measurement": "free MDA levels in plasma", "setting": "free MDA; 600 mg BID over 10 days", "value": "decrease in free MDA levels was observed"}, {"measurement": "levels of HDL", "setting": "free MDA; [9]", "value": "statistically higher"}, {"measurement": "levels of free fatty acids", "setting": "free MDA; [9]", "value": "statistically lower"}, {"measurement": "liver fibrosis (picrosirius red histopathology)", "setting": "rat NAFLD model [6]; 7 week and 12 week groups", "value": "trended to have reduced"}, {"measurement": "liver inflammation (hematoxylin eosin histopathology)", "setting": "rat NAFLD model [6]; 7 week and 12 week groups", "value": "trended to have reduced"}, {"measurement": "NAS score", "setting": "rat NAFLD model [6]; 100 mg/kg, vs vehicle", "value": "statistical significant reduction"}, {"measurement": "NAS score", "setting": "rat NAFLD model [6]; 30/60/100 mg/kg escalation", "value": "reduced"}, {"measurement": "MCP expression levels", "setting": "rat NAFLD model [6]; 12 week group, vs vehicle", "value": "remained similar to vehicle"}, {"measurement": "MIP expression levels", "setting": "rat NAFLD model [6]; 12 week group, vs vehicle", "value": "reduction"}, {"measurement": "Rantes expression levels", "setting": "rat NAFLD model [6]; 12 week group, vs vehicle", "value": "remained similar to vehicle"}, {"measurement": "cholesterol", "setting": "rat NAFLD model [6]; [10]", "value": "trended at lower values than vehicle"}, {"measurement": "triglycerides", "setting": "rat NAFLD model [6]; [10]", "value": "trended at lower values than vehicle"}, {"measurement": "risk of off-target effects", "setting": "[7]", "value": "low risk of off-target effects"}]}]}
